Data published in the NIST ThermoML archive (doi:10.1021/je200073x).

Assays:
[1] = 101.33 kPa, Liquid; for viscosity: Concentric cylinders viscometry; for electrical conductivity: Metler Toledo SevenEasy conductivity meter; for mass density: Vibrating tube method
[2] = molar heat capacity at constant pressure; settings: 101.33 kPa, Liquid, Small sample (50 mg) DSC

CCCCCC[n+]1ccn(C)c1.FC(F)(F)C(F)(F)[P-](F)(F)(F)(C(F)(F)C(F)(F)F)C(F)(F)C(F)(F)F
Settings | electrical conductivity [S/m] | mass density [kg/m3] | molar heat capacity at constant pressure [J/K/mol] | viscosity [mPa·s]
[1], 293.15 K | 0.1303 | 1555.6 | – | 114.3
[1], 298.15 K | 0.167 | 1550.1 | – | 88.2
[1], 303.15 K | 0.209 | 1544.7 | – | 68.4
[1], 308.15 K | 0.258 | 1539.3 | – | 54.1
[1], 313.15 K | 0.313 | 1533.9 | – | 43.2
[1], 318.15 K | 0.374 | 1528.7 | – | 35.1
[1], 323.15 K | 0.44 | 1523.5 | – | 28.9
[1], 328.15 K | 0.514 | 1518 | – | 24.4
[1], 333.15 K | 0.593 | 1512.6 | – | 20.3
[1], 338.15 K | 0.676 | 1507.2 | – | 17.3
[1], 343.15 K | 0.769 | 1501.8 | – | 14.8
[2], 293.15 K | – | – | 725.56 | –
[2], 294.15 K | – | – | 726.17 | –
[2], 295.15 K | – | – | 726.78 | –
[2], 296.15 K | – | – | 728.01 | –
[2], 297.15 K | – | – | 728.62 | –
[2], 298.15 K | – | – | 729.85 | –
[2], 299.15 K | – | – | 730.46 | –
[2], 300.15 K | – | – | 731.68 | –
[2], 301.15 K | – | – | 732.29 | –
[2], 302.15 K | – | – | 733.52 | –
[2], 303.15 K | – | – | 734.13 | –
[2], 304.15 K | – | – | 735.36 | –
[2], 305.15 K | – | – | 735.97 | –
[2], 306.15 K | – | – | 737.19 | –
[2], 307.15 K | – | – | 737.81 | –
[2], 308.15 K | – | – | 738.42 | –
[2], 309.15 K | – | – | 739.64 | –
[2], 310.15 K | – | – | 740.25 | –
[2], 311.15 K | – | – | 741.48 | –
[2], 312.15 K | – | – | 742.09 | –
[2], 313.15 K | – | – | 743.32 | –
[2], 314.15 K | – | – | 743.93 | –
[2], 315.15 K | – | – | 745.15 | –
[2], 316.15 K | – | – | 745.77 | –
[2], 317.15 K | – | – | 746.99 | –
[2], 318.15 K | – | – | 747.6 | –
[2], 319.15 K | – | – | 748.83 | –
[2], 320.15 K | – | – | 749.44 | –
[2], 321.15 K | – | – | 750.05 | –
[2], 322.15 K | – | – | 751.28 | –
[2], 323.15 K | – | – | 751.89 | –
[2], 324.15 K | – | – | 752.5 | –
[2], 325.15 K | – | – | 753.11 | –
[2], 326.15 K | – | – | 754.34 | –
[2], 327.15 K | – | – | 754.95 | –
[2], 328.15 K | – | – | 756.17 | –
[2], 329.15 K | – | – | 756.79 | –
[2], 330.15 K | – | – | 758.01 | –
[2], 331.15 K | – | – | 758.62 | –
[2], 332.15 K | – | – | 759.24 | –
[2], 333.15 K | – | – | 759.85 | –
[2], 334.15 K | – | – | 760.46 | –
[2], 335.15 K | – | – | 761.07 | –
[2], 336.15 K | – | – | 762.3 | –
[2], 337.15 K | – | – | 762.91 | –
[2], 338.15 K | – | – | 763.52 | –
[2], 339.15 K | – | – | 764.75 | –
[2], 340.15 K | – | – | 765.36 | –
[2], 341.15 K | – | – | 765.97 | –
[2], 342.15 K | – | – | 767.2 | –
[2], 343.15 K | – | – | 767.81 | –

CCCCCCn1cc[n+](C)c1.F[P-](F)(F)(F)(F)F [1-hexyl-3-methylimidazolium hexafluorophosphate]
Settings | electrical conductivity [S/m] | mass density [kg/m3] | molar heat capacity at constant pressure [J/K/mol] | viscosity [mPa·s]
[1], 293.15 K | 0.0388 | 1296.7 | – | 693.1
[1], 298.15 K | 0.0543 | 1292.9 | – | 485.8
[1], 303.15 K | 0.074 | 1288.7 | – | 350.9
[1], 308.15 K | 0.0992 | 1285.1 | – | 255.4
[1], 313.15 K | 0.1301 | 1281 | – | 189.4
[1], 318.15 K | 0.168 | 1277 | – | 147.5
[1], 323.15 K | 0.212 | 1273 | – | 114.7
[1], 328.15 K | 0.264 | 1269.1 | – | 91.1
[1], 333.15 K | 0.322 | 1265.2 | – | 73.5
[1], 338.15 K | 0.391 | 1261.2 | – | 60
[1], 343.15 K | 0.465 | 1257 | – | 49.6
[2], 293.15 K | – | – | 421.53 | –
[2], 294.15 K | – | – | 422.15 | –
[2], 295.15 K | – | – | 422.78 | –
[2], 296.15 K | – | – | 423.09 | –
[2], 297.15 K | – | – | 423.4 | –
[2], 298.15 K | – | – | 424.02 | –
[2], 299.15 K | – | – | 424.34 | –
[2], 300.15 K | – | – | 424.96 | –
[2], 301.15 K | – | – | 425.27 | –
[2], 302.15 K | – | – | 426.21 | –
[2], 303.15 K | – | – | 426.83 | –
[2], 304.15 K | – | – | 427.15 | –
[2], 305.15 K | – | – | 427.46 | –
[2], 306.15 K | – | – | 428.08 | –
[2], 307.15 K | – | – | 428.71 | –
[2], 308.15 K | – | – | 429.33 | –
[2], 309.15 K | – | – | 429.96 | –
[2], 310.15 K | – | – | 430.58 | –
[2], 311.15 K | – | – | 431.21 | –
[2], 312.15 K | – | – | 431.52 | –
[2], 313.15 K | – | – | 432.14 | –
[2], 314.15 K | – | – | 432.77 | –
[2], 315.15 K | – | – | 433.39 | –
[2], 316.15 K | – | – | 434.02 | –
[2], 317.15 K | – | – | 434.64 | –
[2], 318.15 K | – | – | 434.95 | –
[2], 319.15 K | – | – | 435.58 | –
[2], 320.15 K | – | – | 436.2 | –
[2], 321.15 K | – | – | 436.83 | –
[2], 322.15 K | – | – | 437.45 | –
[2], 323.15 K | – | – | 437.76 | –
[2], 324.15 K | – | – | 438.7 | –
[2], 325.15 K | – | – | 439.32 | –
[2], 326.15 K | – | – | 439.95 | –
[2], 327.15 K | – | – | 440.89 | –
[2], 328.15 K | – | – | 441.82 | –
[2], 329.15 K | – | – | 442.45 | –
[2], 330.15 K | – | – | 443.07 | –
[2], 331.15 K | – | – | 444.01 | –
[2], 332.15 K | – | – | 444.63 | –
[2], 333.15 K | – | – | 445.26 | –
[2], 334.15 K | – | – | 445.88 | –
[2], 335.15 K | – | – | 446.51 | –
[2], 336.15 K | – | – | 447.44 | –
[2], 337.15 K | – | – | 448.07 | –
[2], 338.15 K | – | – | 448.69 | –
[2], 339.15 K | – | – | 449.32 | –
[2], 340.15 K | – | – | 450.25 | –
[2], 341.15 K | – | – | 450.56 | –
[2], 342.15 K | – | – | 451.5 | –
[2], 343.15 K | – | – | 452.44 | –
